Experimental data published in PubChem BioAssay (NCI).
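The compound was tested at five concentrations on cells cultured in 96-well plates, with a 48-hour exposure period. GI50 = concentration required for 50% inhibition of growth. TGI denotes the concentration required for complete inhibition of growth.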 Where a SMILES comes first, the peptide text is derived from it. The star is where a group is joined. Trt = c1ccc(C(c2ccccc2)(c2ccccc2)*)cc1; Cbz = O=C(OCc1ccccc1)*

Legend:
Assay in all cases: NCI-60 cell line screen, 48 h
RXF 393 renal = system: RXF 393 renal
MOLT-4 leukemia = system: MOLT-4 leukemia
NCI-H23 lung = system: NCI-H23 lung
KM12 colon = system: KM12 colon
NCI-H226 lung = system: NCI-H226 lung
SF-539 CNS = system: SF-539 CNS
A498 renal = system: A498 renal
K-562 leukemia = system: K-562 leukemia
ACHN renal = system: ACHN renal
SF-268 CNS = system: SF-268 CNS

| Compound | GI50 (RXF 393 renal) [µM] | TGI (RXF 393 renal) [µM] | GI50 (MOLT-4 leukemia) [µM] | TGI (MOLT-4 leukemia) [µM] | GI50 (NCI-H23 lung) [µM] | TGI (NCI-H23 lung) [µM] | GI50 (KM12 colon) [µM] | TGI (KM12 colon) [µM] | GI50 (NCI-H226 lung) [µM] | TGI (NCI-H226 lung) [µM] | GI50 (SF-539 CNS) [µM] | TGI (SF-539 CNS) [µM] | GI50 (A498 renal) [µM] | TGI (A498 renal) [µM] | GI50 (K-562 leukemia) [µM] | TGI (K-562 leukemia) [µM] | GI50 (ACHN renal) [µM] | TGI (ACHN renal) [µM] | GI50 (SF-268 CNS) [µM] | TGI (SF-268 CNS) [µM] |
| --- | --- | --- | --- | --- | --- | --- | --- | --- | --- | --- | --- | --- | --- | --- | --- | --- | --- | --- | --- | --- |
| O=C(Nc1cccc(C(F)(F)F)c1)c1cc2ccccc2cc1O | 3.3 | > 30.4 | 3.37 | > 35.6 | 0.67 | 8.14 | 2.45 | 8.44 | 2.22 | > 100 | 2.25 | 70.2 | 0.919 | 7.4 | 0.487 | > 100 | 1.78 | > 30.4 | 2.7 | > 100 |
| Cc1ccc(-c2n[nH]c(=O)c3noc(-c4ccc(C)cc4)c23)cc1 | 0.419 | 2.08 | 1.95 | > 100 | 4.86 | > 100 | 0.713 | > 100 | 6.88 | > 100 | 0.787 | 4.14 | 1.27 | 6.71 | 0.383 | > 100 | 3.16 | 73.3 | 2.21 | 27.7 |
| N#C/C(=C\c1ccc2[nH]ccc2c1)C(=O)c1ccc(O)c(O)c1 |  | > 100 |  | > 100 |  | > 100 |  | > 100 |  | > 100 |  | > 100 |  | > 100 |  | > 100 |  | > 100 |  | > 100 |
| S=c1c2ccccc2c(=S)n2n1CC=CC2 |  | > 100 |  | > 100 |  | > 100 |  | > 100 |  | > 100 |  | > 100 |  | > 100 |  | > 100 |  | > 100 |  | > 100 |
| COC(=O)C(CSC(c1ccccc1)(c1ccccc1)c1ccccc1)NC(=O)C(CC(N)=O)NC(=O)OCc1ccccc1 (stereo not drawn) (Cbz-Asn-Cys(Trt)-OMe; configuration not given here) | 3.17 | 13.5 | 2.1 | 5.2 | 5.73 | 22.6 | 4.62 | 17 | 5.43 | 22 | 1.68 | 5.49 | 3.67 | 13.8 | 3.16 | 11.4 | 5.11 | 22.4 | 3.08 | 13.2 |
| COc1ccc(C(=O)c2cc3c(N)c(C(=O)Nc4cccc(OC)c4)sc3nc2C)cc1 | 0.323 |  | 0.745 | > 100 | 1.7 | > 100 | 0.568 | > 100 | 2.99 | > 100 | 0.372 | 2.59 | 0.393 |  | 0.378 | > 100 | 0.853 | > 100 | 1.75 | > 100 |
| O=S(=O)(O)SCCNCCCCCC1CCCCC1 |  | 38 |  | > 31 |  | 27.5 |  | 7.76 |  | 30.6 |  | 19.6 |  | 40.6 |  | > 35.8 |  | 30.3 |  | 23.5 |
| O=C(/C=C/c1ccc([N+](=O)[O-])cc1)c1cccc(Nc2nc(Nc3ccccc3)nc(Nc3ccccc3)n2)c1 | 5.99 | 30.1 | 2.6 | 20 | 17.5 | 98.3 | 5.04 | 29.5 | 14.4 | 44.9 | 12.7 | 35.5 | 11.8 | 28.1 | 2.89 | 28.2 | 27 | > 100 | 17.6 | > 100 |
| COc1ccc(C2=Nc3c/c(=C\c4c(O)[nH]c5cc(Cl)ccc45)ccc3=N2)cc1 | 3.16 | 12.2 | 4.85 | 29.9 | 10.2 | 24.2 | 2.49 | 14.2 | > 100 | > 100 | 11.4 | 28 | 5.24 | > 100 | 2.18 | 11.5 | 17.3 | 41.3 | 12.9 | 32.4 |
| Cc1noc(/N=C2\C=C(Nc3onc(C)c3C)C(=O)c3ccccc32)c1C |  | > 100 |  | > 100 |  | > 100 |  | > 100 |  | > 100 |  | > 100 |  | > 100 |  | > 100 |  | > 100 |  | > 100 |
| Cc1c(Cl)cccc1NC(=O)c1sc2nc3c(cc2c1N)CCCC3 | 0.514 | > 89.6 | 0.481 | > 100 | 9.15 | > 100 | 0.482 | > 100 | > 100 | > 100 | 0.328 |  | 0.413 | > 100 | 0.391 | > 100 | 0.785 | > 100 | 0.786 | > 100 |
| O=C(/C=C/c1ccccc1)CCC1C(=O)NC(=S)NC1=O |  | > 100 |  | > 100 |  | > 100 |  |  |  | > 100 |  | > 100 |  | > 100 |  | > 100 |  | > 100 |  | > 100 |
| O=C(CCCCCCCCC(=O)N/N=C\c1cc(Cl)ccc1O)N/N=C\c1cc(Cl)ccc1O | 0.208 | 7.78 | 0.222 | 17.6 | 0.636 | > 67.3 | 0.594 | > 100 | 0.5 | > 36.2 | 0.339 | > 46.8 | > 33.1 | > 80.9 | 0.38 | 10.2 | 0.175 | > 100 | 0.223 | > 100 |
| COc1cc(/C=N/NC(=O)c2ccccc2Nc2cccc(C(F)(F)F)c2)cc(OC)c1OC | 2.35 | 5.87 | 3.14 | 15.3 | 6.37 | 23.1 | 1.29 | 4.17 | 7.45 | 25.2 | 2.14 | 5.62 | 1.93 | 6.76 | 2.52 | > 37.2 | 3.3 | 13.3 | 2.05 | 7.99 |
